From PubChem BioAssay AID1963440 (Molecular Pharmacology Branch, DTP, NCI, 2024)
“And” between values parts separate entries of the source, which are not always exact repeats. Equal entries are not always repeated.

System: NCI-H1417 complex spheroids, growth % test/control
Assay: Anticancer human tumor NCI-H1417 cell line growth inhibition [Asc];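 also: spheroids exposed to compounds for 7 days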;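 as to viability, T/C: 100% = DMSO vehicle control wells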
Conditions: for viability, T/C: stronger effect = lower value
In short: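 Tumor cells were grown as complex spheroids with human endothelial cells (HUVEC) and human mesenchymal stem cells as stroma. Agents were tested alone and in combination, in half-log steps down from the clinical Cmax, or from 10 microM where Cmax was unknown.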

[1] = curve of first compound, second compound 0.1 µM
[2] = curve of first compound, second compound 0.316 µM
[3] = curve of first compound, second compound 1 µM

For C=CC(=O)N1CCN(c2nc(=O)n(-c3c(C)ccnc3C(C)C)c3nc(-c4c(O)cccc4F)c(F)cc23)C(C)C1 (configuration not stated) + CNC(C)C(=O)NC1CN(S(=O)(=O)c2cccc(S(=O)(=O)N3CCC4CCC(C(=O)NC(c5ccccc5)c5ccccc5)N4C(=O)C(NC(=O)C(C)NC)C3)c2)CCC2CCC(C(=O)NC(c3ccccc3)c3ccccc3)N2C1=O, the IC50 (curve of first compound, second compound 0.01 µM) was > 10 µM, the IC50 (curve of first compound, second compound 0.0316 µM) was > 10 µM and the IC50 [1] was > 10 µM. The IC50 [2] was > 10 µM, the IC50 [3] was > 10 µM and the viability, T/C (second compound 0.01 µM, first compound 0.0316 µM) was 94%. It also gave a viability, T/C (second compound 0.01 µM, first compound 0.1 µM) of 90%, a viability, T/C (second compound 0.01 µM, first compound 0.316 µM) of 97.6% and a viability, T/C (second compound 0.01 µM, first compound 1 µM) of 96.2%. It also gave a viability, T/C (second compound 0.01 µM, first compound 3.16 µM) of 102%, a viability, T/C (second compound 0.01 µM, first compound 10 µM) of 103% and a viability, T/C (second compound 0.0316 µM, first compound 0.0316 µM) of 88.1%. For the same compound, the viability, T/C (second compound 0.0316 µM, first compound 0.1 µM) was 99.8%, the viability, T/C (second compound 0.0316 µM, first compound 0.316 µM) was 89.9% and the viability, T/C (second compound 0.0316 µM, first compound 1 µM) was 94.4%. The viability, T/C (second compound 0.0316 µM, first compound 3.16 µM) was 97.6%, the viability, T/C (second compound 0.0316 µM, first compound 10 µM) was 87.8% and the viability, T/C (second compound 0.1 µM, first compound 0.0316 µM) was 99.3%. For the same compound, the viability, T/C (second compound 0.1 µM, first compound 0.1 µM) was 87.5%, the viability, T/C (second compound 0.1 µM, first compound 0.316 µM) was 96.7% and the viability, T/C (second compound 0.1 µM, first compound 1 µM) was 96.9%. The viability, T/C (second compound 0.1 µM, first compound 3.16 µM) was 92%, the viability, T/C (second compound 0.1 µM, first compound 10 µM) was 88.2% and the viability, T/C (second compound 0.316 µM, first compound 0.0316 µM) was 84.6%. For the same compound, the viability, T/C (second compound 0.316 µM, first compound 0.1 µM) was 94.3%, the viability, T/C (second compound 0.316 µM, first compound 0.316 µM) was 94.6% and the viability, T/C (second compound 0.316 µM, first compound 1 µM) was 92.5%. For the same compound, the viability, T/C (second compound 0.316 µM, first compound 3.16 µM) was 93.8%, the viability, T/C (second compound 0.316 µM, first compound 10 µM) was 86.2% and the viability, T/C (second compound 1 µM, first compound 0.0316 µM) was 90.9%. The viability, T/C (second compound 1 µM, first compound 0.1 µM) was 101%, the viability, T/C (second compound 1 µM, first compound 0.316 µM) was 89.4% and the viability, T/C (second compound 1 µM, first compound 1 µM) was 90.2%. It also gave a viability, T/C (second compound 1 µM, first compound 3.16 µM) of 104% and a viability, T/C (second compound 1 µM, first compound 10 µM) of 93.3%.

CCN1C(C(=O)NC23CCC(C(=O)O)(CC2)CC3)C(c2cccc(Cl)c2F)C2(C(=O)Nc3cc(Cl)ccc32)C12CCCCC2 (configuration not stated) + Cc1c(S(C)(=O)=O)c(-c2cc(F)cc(N3CCN(c4ccc(NS(=O)(=O)c5ccc(NC(CCN6CCC(C(=O)OCCCP(=O)(O)O)CC6)CSc6ccccc6)c(S(=O)(=O)C(F)(F)F)c5)cc4)CC3)c2)c(-c2ccc(Cl)cc2)n1C(C)C was tested, and the IC50 [1] was 0.584 µM, the IC50 [2] was < 0.00949 µM and the IC50 [3] was < 0.00949 µM. For the same compound, the IC50 (curve of first compound, second compound 3.16 µM) was < 0.00949 µM, the IC50 (curve of first compound, second compound 10 µM) was < 0.00949 µM and the viability, T/C (second compound 0.1 µM, first compound 0.00949 µM) was 78.9%. For the same compound, the viability, T/C (second compound 0.1 µM, first compound 0.03 µM) was 81.2%, the viability, T/C (second compound 0.1 µM, first compound 0.0949 µM) was 67.5% and the viability, T/C (second compound 0.1 µM, first compound 0.3 µM) was 58.7%. It also gave a viability, T/C (second compound 0.1 µM, first compound 0.949 µM) of 44.9%, a viability, T/C (second compound 0.1 µM, first compound 3 µM) of 16.4% and a viability, T/C (second compound 0.316 µM, first compound 0.00949 µM) of 35.7%. For the same compound, the viability, T/C (second compound 0.316 µM, first compound 0.03 µM) was 33.3%, the viability, T/C (second compound 0.316 µM, first compound 0.0949 µM) was 22.1% and the viability, T/C (second compound 0.316 µM, first compound 0.3 µM) was 16.4%. It also gave a viability, T/C (second compound 0.316 µM, first compound 0.949 µM) of 11.8%, a viability, T/C (second compound 0.316 µM, first compound 3 µM) of 1.6% and a viability, T/C (second compound 1 µM, first compound 0.00949 µM) of 11.4%. It also gave a viability, T/C (second compound 1 µM, first compound 0.03 µM) of 6.74%, a viability, T/C (second compound 1 µM, first compound 0.0949 µM) of 4.76% and a viability, T/C (second compound 1 µM, first compound 0.3 µM) of 2.15%. It also gave a viability, T/C (second compound 1 µM, first compound 0.949 µM) of 1.25%, a viability, T/C (second compound 1 µM, first compound 3 µM) of 0.65% and a viability, T/C (second compound 3.16 µM, first compound 0.00949 µM) of 2.36%. The viability, T/C (second compound 3.16 µM, first compound 0.03 µM) was 2.41%, the viability, T/C (second compound 3.16 µM, first compound 0.0949 µM) was 1.59% and the viability, T/C (second compound 3.16 µM, first compound 0.3 µM) was 1.03%. It also gave a viability, T/C (second compound 3.16 µM, first compound 0.949 µM) of 0.63%, a viability, T/C (second compound 3.16 µM, first compound 3 µM) of 0.39% and a viability, T/C (second compound 10 µM, first compound 0.00949 µM) of 1.88%. For the same compound, the viability, T/C (second compound 10 µM, first compound 0.03 µM) was 2.25%, the viability, T/C (second compound 10 µM, first compound 0.0949 µM) was 2.08% and the viability, T/C (second compound 10 µM, first compound 0.3 µM) was 1.02%. It also gave a viability, T/C (second compound 10 µM, first compound 0.949 µM) of 0.65% and a viability, T/C (second compound 10 µM, first compound 3 µM) of 0.29%.

In the case of C=CC(=O)N1CCN(c2nc(=O)n(-c3c(C)ccnc3C(C)C)c3nc(-c4c(O)cccc4F)c(F)cc23)C(C)C1 (configuration not stated) + CCN1C(C(=O)NC23CCC(C(=O)O)(CC2)CC3)C(c2cccc(Cl)c2F)C2(C(=O)Nc3cc(Cl)ccc32)C12CCCCC2, the IC50 (curve of first compound, second compound 0.03 µM) is reported as > 10 µM, the IC50 (curve of first compound, second compound 0.0949 µM) is reported as > 10 µM and the IC50 (curve of first compound, second compound 0.3 µM) is reported as > 10 µM. For the same compound, the IC50 (curve of first compound, second compound 0.949 µM) was > 10 µM, the IC50 (curve of first compound, second compound 3 µM) was > 10 µM and the viability, T/C (second compound 0.03 µM, first compound 0.0316 µM) was 94.4%. It also gave a viability, T/C (second compound 0.03 µM, first compound 0.1 µM) of 100%, a viability, T/C (second compound 0.03 µM, first compound 0.316 µM) of 109% and a viability, T/C (second compound 0.03 µM, first compound 1 µM) of 101%. It also gave a viability, T/C (second compound 0.03 µM, first compound 3.16 µM) of 115%, a viability, T/C (second compound 0.03 µM, first compound 10 µM) of 105% and a viability, T/C (second compound 0.0949 µM, first compound 0.0316 µM) of 102%. For the same compound, the viability, T/C (second compound 0.0949 µM, first compound 0.1 µM) was 94.4%, the viability, T/C (second compound 0.0949 µM, first compound 0.316 µM) was 98.4% and the viability, T/C (second compound 0.0949 µM, first compound 1 µM) was 101%. The viability, T/C (second compound 0.0949 µM, first compound 3.16 µM) was 104%, the viability, T/C (second compound 0.0949 µM, first compound 10 µM) was 119% and the viability, T/C (second compound 0.3 µM, first compound 0.0316 µM) was 102%. For the same compound, the viability, T/C (second compound 0.3 µM, first compound 0.1 µM) was 107%, the viability, T/C (second compound 0.3 µM, first compound 0.316 µM) was 106% and the viability, T/C (second compound 0.3 µM, first compound 1 µM) was 94.3%. For the same compound, the viability, T/C (second compound 0.3 µM, first compound 3.16 µM) was 99.8%, the viability, T/C (second compound 0.3 µM, first compound 10 µM) was 112% and the viability, T/C (second compound 0.949 µM, first compound 0.0316 µM) was 94.3%. It also gave a viability, T/C (second compound 0.949 µM, first compound 0.1 µM) of 95.4%, a viability, T/C (second compound 0.949 µM, first compound 0.316 µM) of 93.1% and a viability, T/C (second compound 0.949 µM, first compound 1 µM) of 97.9%. For the same compound, the viability, T/C (second compound 0.949 µM, first compound 3.16 µM) was 95.5%, the viability, T/C (second compound 0.949 µM, first compound 10 µM) was 99.5% and the viability, T/C (second compound 3 µM, first compound 0.0316 µM) was 91.6%. It also gave a viability, T/C (second compound 3 µM, first compound 0.1 µM) of 93.2%, a viability, T/C (second compound 3 µM, first compound 0.316 µM) of 98.5% and a viability, T/C (second compound 3 µM, first compound 1 µM) of 93.7%. It also gave a viability, T/C (second compound 3 µM, first compound 3.16 µM) of 93.4% and a viability, T/C (second compound 3 µM, first compound 10 µM) of 103%.

In the case of COc1c(OCCCN2CCOCC2)ccc2c3n(c(=NC(=O)c4cnc(N)nc4)nc12)CCN3, the viability, T/C (compound 0.00316 µM) is reported as 94.5% and 101% and 96.7%, the viability, T/C (compound 0.01 µM) is reported as 100% and 96.2% and 99% and the viability, T/C (compound 0.0316 µM) is reported as 82.9% and 83.8% and 91.8%. For the same compound, the viability, T/C (compound 0.1 µM) was 76.9% and 73.8% and 90.3%, the viability, T/C (compound 0.316 µM) was 69% and 70.4% and 77.1% and the viability, T/C (compound 1 µM) was 54.8% and 47.9% and 64%. For the same compound, the IC50 (curve of compound) was > 1 µM.
